Experimental data published in publication PMC7380166, “How to Study the Metabolism of New Psychoactive Substances for the Purpose of Toxicological Screenings—A Follow-Up Study Comparing Pooled Human Liver S9, HepaRG Cells, and Zebrafish Larvae” (Frontiers in Chemistry, 2020).

What was measured:
[1] = Incubations with pooled human liver S9 fraction (pHLS9), metabolite identification by LC-HRMS/MS; assay type: in vitro ADME; conditions: for Absolute peak area, pHLS9 1 h [25 μM] / Absolute peak area, pHLS9 6 h [25 μM]: 25 μM 4F-MDMB-BINACA, one replicate of n = 2, n.d. = not detected; for Absolute peak area, pHLS9 1 h [25 μM]: 1 h incubation; for Absolute peak area, pHLS9 6 h [25 μM]: 6 h incubation
Procedure: According to published procedures (Richter et al., [2017b], [2019b]; Caspar et al., [2018b]; Wagmann et al., [2019b],[c]), the final incubation volume per reaction tube was 150 μl, with a final protein concentration of 2 mg/ml. The given concentrations represent final concentrations. A preincubation for 10 min at 37°C with UGT reaction mixture solution B (containing alamethicin, 25 μg/ml), MgCl2 (2.5 mM), NADP^+ (0.6 mM), isocitrate (2.5 mM), isocitrate dehydrogenase (0.8 U/ml), superoxide dismutase (100 U/ml), acetyl coenzyme A (0.1 mM), phosphate buffer (90 mM, pH 7.4), and pHLS9 (2 mg/ml) was done. Afterwards, UGT reaction mixture solution A (containing UDP glucuronic acid, 2.5 mM), PAPS (40 μM), SAM (1.2 mM), dithiothreitol (1 mM), and glutathione (10 mM) were added, as well as 25 μM 4F-MDMB-BINACA to start the reactions. The mixture was incubated for 360 min. Total amount of organic solvent in incubation mixtures was <2% (Chauret et al., [1998]). After 60 min, an aliquot of the reaction mixture (60 μl) was transferred in another reaction tube containing 20 μl of ice-cold acetonitrile to terminate the reactions. The remaining aliquot (90 μl) was incubated for an additional 300 min, and then the reactions were stopped by adding 30 μl of ice-cold acetonitrile. Thereafter, the reaction tubes were cooled at −20°C for 30 min prior to centrifugation at 18,407 × g for 2 min. The supernatants (50 μl) were transferred into autosampler vials, and 1 μl was injected onto the LC-HRMS/MS system. Control samples without pHLS9 and blank samples without substrate were prepared to confirm the absence of non-metabolically formed and interfering compounds, respectively. All incubations were performed in duplicate.
According to a previous study (Richter et al., [2019a]), a Thermo Fisher Scientific (TF, Dreieich, Germany) Dionex UltiMate 3000 Rapid Separation (RS) UHPLC system with a quaternary UltiMate 3000 RS pump and an UltiMate 3000 RS autosampler controlled by the TF Chromeleon software version 6.8 was used. The LC system was coupled to an Orbitrap-based TF Q-Exactive Plus equipped with a heated electrospray ionization II (HESI-II) source. Calibration was done prior to analysis with a Positive Cal Mix (Supelco, Bellefonte, PA, USA) at a flow rate of 3 μl/min using a syringe pump. The conditions of the LC system were as follows: TF Accucore PhenylHexyl column (100 × 2.1 mm, 2.6 μm particle size); gradient elution with 2 mM ammonium formate solution containing 0.1% (v/v) formic acid (eluent A) and 2 mM ammonium formate solution in acetonitrile/methanol (50:50, v/v) containing 0.1% (v/v) formic acid, and 1% (v/v) water (eluent B). […] The following gradient was used: 0–1.0 min hold 1% B, 1–10 min to 99% B, 10–11.5 min hold 99% B, 11.5–13.5 min hold 1% B. The HESI-II source conditions were as follows: ionization mode, positive; heater temperature, 320°C; ion transfer capillary temperature, 320°C; sheath gas, 60 arbitrary units (AU); auxiliary gas, 10 AU; spray voltage, 4.00 kV; and S-lens RF level, 50.0. Mass spectrometry experiments were performed using high-resolution (HR) full scan mode and a targeted MS^2 mode with an inclusion list for each NPS. The inclusion list contained m/z values of metabolites, which were likely to be formed for example hydroxy, oxo, carboxy, dealkyl, demethylenylated, and defluorinated metabolites (phase I) as well as sulfates and glucuronides (phase II) and combinations of them. Full scan settings were as follows: resolution, 35,000; automatic gain control (AGC) target, 3e6; maximum injection time (IT), 120 ms; scan ranges, 3,4-DMA-NBOMe m/z 100–700, ephylone m/z 200–600, 4F-MDMB-BINACA m/z 150–700, 4F-PHP m/z 200–600, and 1P-LSD m/z 250–700. The settings for the targeted MS^2 mode with the respective inclusion lists were as follows: resolution, 17,500; AGC target, 2e5; maximum IT, 250 ms; loop count, 5; isolation window, 1.0 m/z; stepped normalized collision energy (NCE), 17.5, 35, 52.5%; pick others, enabled. […]

CYP2C8 = molecular target: T1, CYP2C8 (Homo sapiens, UniProt P10632); experiment: Monooxygenases activity screening, CYP2C8; assay type: in vitro ADME; parameters: key: +, detected; –: −, not detected; conditions: 25 μM 4F-MDMB-BINACA, 50 pmol/ml enzyme, 30 min, 37°C, duplicate
T1 construct: purchased Corning; host or cells: baculovirus-transfected insect cell microsomes (Supersomes)
T1 sequence (P10632 1-490): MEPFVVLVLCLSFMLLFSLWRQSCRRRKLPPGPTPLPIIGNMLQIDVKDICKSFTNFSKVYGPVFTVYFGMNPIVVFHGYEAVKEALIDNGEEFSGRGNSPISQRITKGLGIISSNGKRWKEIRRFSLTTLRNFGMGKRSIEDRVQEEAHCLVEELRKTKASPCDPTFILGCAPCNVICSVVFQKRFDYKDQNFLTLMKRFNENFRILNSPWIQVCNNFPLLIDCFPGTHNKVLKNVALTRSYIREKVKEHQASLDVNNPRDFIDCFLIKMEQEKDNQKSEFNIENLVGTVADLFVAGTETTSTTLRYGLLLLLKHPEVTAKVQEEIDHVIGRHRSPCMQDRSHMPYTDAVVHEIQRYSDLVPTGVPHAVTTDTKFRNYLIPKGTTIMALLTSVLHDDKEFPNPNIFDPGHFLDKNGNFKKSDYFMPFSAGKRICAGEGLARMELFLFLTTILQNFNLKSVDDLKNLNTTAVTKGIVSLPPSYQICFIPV
Procedure: According to an established protocol (Wagmann et al., [2016]), the final volume per reaction tube was 50 μl with a final 4F-MDMB-BINACA concentration of 25 μM and enzyme concentrations of 50 pmol/ml for CYP1A2, CYP2A6, CYP2B6, CYP2C8, CYP2C9, CYP2C19, CYP2D6, CYP2E1, CYP3A4, and CYP3A5, respectively, or 0.25 mg protein/ml for FMO3. Furthermore, the reaction mixture contained 90 mM phosphate buffer (pH 7.4), superoxide dismutase (200 U/ml), isocitrate (5 mM), MgCl2 (5 mM), isocitrate dehydrogenase (0.5 U/ml), and NADP^+ (1.2 mM). The phosphate buffer was replaced with Tris buffer (90 mM) for incubations with CYP2A6 and CYP2C9 according to the manufacturer's recommendation. All incubations were performed at 37°C for 30 min and terminated by adding 50 μl of ice-cold acetonitrile. Afterwards, the mixtures were centrifuged at 18,407 × g for 5 min, 70 μl of the supernatants was transferred into autosampler vials, and 1 μl was injected onto the LC-HRMS/MS system. Positive control incubations were performed with pHLM (1 mg microsomal protein/ml), and negative controls without enzyme were prepared to identify non-metabolically formed compounds. All incubations were done in duplicate.

## COC(=O)[C@@H](NC(=O)c1nn(CCCCF)c2ccccc12)C(C)(C)CO [MB16]
[1]
  Absolute peak area, pHLS9 1 h [25 μM]: 1.70E+05
CYP2C8
  Detection of metabolite in incubation with CYP2C8: –

## COC(=O)[C@@H](NC(=O)c1nn(CCCCO)c2ccccc12)C(C)(C)C [MB11]
[1]
  Absolute peak area, pHLS9 1 h [25 μM]: 4.27E+06
  Absolute peak area, pHLS9 6 h [25 μM]: 3.89E+05
CYP2C8
  Detection of metabolite in incubation with CYP2C8: +

## CC(C)(C)C(NC(=O)c1nn(CCCCF)c2ccccc12)C(=O)O (centres unmarked) [MB8]
[1]
  Absolute peak area, pHLS9 1 h [25 μM]: 1.01E+08
  Absolute peak area, pHLS9 6 h [25 μM]: 2.77E+08
CYP2C8
  Detection of metabolite in incubation with CYP2C8: –

## COC(=O)C(NC(=O)c1nn(CCCCF)c2ccccc12)C(C)(C)C (centres unmarked) [4F-MDMB-BINACA, methyl 2-[1-(4-fluorobutyl)-1H-indazole-3-carbonyl]amino-3,3-dimethylbutanoate]
[1]; 25 μM
  Number of phase I metabolites detected, pHLS9 [25 μM]: 15
[1]
  Absolute peak area, pHLS9 1 h [25 μM]: 9.37E+08
  Absolute peak area, pHLS9 6 h [25 μM]: 2.17E+08
[1]; plasma, human data for ephylone and 4F-PHP from Wagmann et al., [2019b]
  Relative number of matches with the four most abundant signals in human plasma, pHLS9 [25 μM]: 100%
[1]; urine, human data for ephylone and 4F-PHP from Wagmann et al., [2019b]
  Relative number of matches with the four most abundant signals in human urine, pHLS9 [25 μM]: 75%

## O=C(O)c1nn(CCCCF)c2ccccc12 [MB1]
CYP2C8
  Detection of metabolite in incubation with CYP2C8: –

## COC(=O)[C@@H](NC(=O)c1n[nH]c2ccccc12)C(C)(C)C [MB4]
[1]
  Absolute peak area, pHLS9 1 h [25 μM]: 5.62E+06
  Absolute peak area, pHLS9 6 h [25 μM]: 2.82E+05
CYP2C8
  Detection of metabolite in incubation with CYP2C8: –
